Columns and labels:
[1] = system: Tx2783, an herbicide susceptible elite sorghum genotype; experiment: Greenhouse herbicide selection, spray on susceptible elite check; format: in vivo, Sorghum bicolor (L.) Moench
Source text: Seeds of 83 wild sorghum populations from Bolivia were planted in a greenhouse for comparison with Tx2783, an herbicide susceptible elite sorghum genotype. Wild sorghum genotypes were planted in flats containing MetroMix 360 potting soil (Sun Gro) and greenhouse grown. Tx2783 was planted with the wild accessions in each flat for comparison. In one selection using clethodim, plants were sprayed with 0.09 lb ai clethodim acre^−1 at 18 days after planting. […] In one selection using fluoazifop-P, flats with Tx2783 and wild accessions were sprayed with a rate of 0.12 lb ai fluazifop-P acre^−1 at 18 days after planting and with 0.36 lb ai fluazifop-P acre^−1 at 32 days after planting. […] In a third experiment, plants were sprayed with a rate of 0.05 lb ai quizalofop acre^−1 at 18 days after planting and with 0.11 lb ai quizalofop acre^−1 at 32 days after planting.

[2] = system: Pioneer 84G62 (herbicide susceptible control); experiment: Mode of inheritance greenhouse spray test, susceptible control; format: in vivo, sorghum; details: 0.045 lb ai fluazifop-P acre^-1 at 14 days after planting, n=3
Method: (§1) The mode of inheritance of herbicide tolerance was determined by planting seeds of Bol-71, F1 generation of cross ATx623×Bol-71, and Pioneer 84G62 (herbicide susceptible control) in flats containing MetroMix 360 potting soil in a greenhouse using a randomized complete block design (n=3). The plants were sprayed with 0.045 lb ai fluazifop-P acre^−1 at 14 days after planting. Pioneer 84G62 died between 12-16 days after spraying.

[3] = system: F1 generation of cross ATx623×Bol-71; experiment: Mode of inheritance greenhouse spray test, F1 hybrid; format: in vivo, sorghum; details: 0.045 lb ai fluazifop-P acre^-1 at 14 days after planting, n=3
Method: as §1

Bol-71 = experiment: Mode of inheritance greenhouse spray test, wild parent; format: in vivo, sorghum; details: 0.045 lb ai fluazifop-P acre^-1 at 14 days after planting, n=3
Method: as §1

SMILES	plant outcome after spraying ([1]; 0.12 lb ai fluazifop-P acre^-1 at 18 days and 0.36 lb ai acre^-1 at 32 days after planting)	time of plant death after spraying [2]	herbicide damage [3]	herbicide damage (Bol-71)	plant outcome after spraying ([1]; 0.05 lb ai quizalofop acre^-1 at 18 days and 0.11 lb ai acre^-1 at 32 days after planting)
C[C@@H](Oc1ccc(Oc2ccc(C(F)(F)F)cn2)cc1)C(=O)O [fluazifop-P]	died	12-16 days after spraying	no herbicide damage	no herbicide damage	
CC(Oc1ccc(Oc2cnc3cc(Cl)ccc3n2)cc1)C(=O)O (centres unmarked) [quizalofop]					died
